Key:
AMBEL (Ragweed, Common) = test: Postemergence herbicidal evaluation; type: in vivo, Ambrosia artemisifolia; settings: postemergence
Outline: (§1)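 Two-week-old seedlings sprayed with compound in 50/50 acetone/water plus 0.5% TWEEN 20, at about 0.0156 to 0.500 kg/ha, nozzle at 40 psi. Kept in greenhouse; rated visually 4-5 weeks after treatment on a 0-9 scale versus control, repeat tests averaged.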

CASOB (Sicklepod) = test: Postemergence herbicidal evaluation; type: in vivo, Cassia obtusifolia; settings: postemergence
Outline: as §1

GALAP (Galium) [1] = test: Postemergence herbicidal evaluation; type: in vivo, Galium aparine; settings: postemergence
Outline: as §1

[2] = test system: GLXMAW (Soybean, Williams); test: Postemergence herbicidal evaluation; type: in vivo, Glycine max, (L.) Merr. cv Williams; settings: postemergence
Outline: as §1

[3] = test system: TRZAWR (Wheat, Winter, cv Riband); test: Postemergence herbicidal evaluation; type: in vivo, Triticum aestivum; settings: postemergence
Outline: as §1

GALAP (Galium) [4] = test: Preemergence herbicidal evaluation; type: in vivo, Galium aparine; settings: rated 4-5 weeks after treatment
Outline: (§2)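 Visual 0-9 rating vs control (stand, vigor, malformation, size, chlorosis, overall appearance), scored 4-5 wk after spraying. Seeded soil cups were treated preemergence with compound in aqueous acetone, ~0.0156-0.500 kg/ha equivalent.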

SETVI (Foxtail, Green) = test: Preemergence herbicidal evaluation; type: in vivo, Setaria viridis; settings: rated 4-5 weeks after treatment
Outline: as §2

ORYSAT (Rice, Tebonnet) = test: Preemergence herbicidal evaluation; type: in vivo, Oryza sativa, (L.) Tebonnet; settings: rated 4-5 weeks after treatment
Outline: as §2

[5] = test system: ECHORC (Watergrass (Calif.)); test: Preemergence weed control under flooded paddy conditions; type: in vivo, Echinochloa oryzoides; settings: rated 3-4 weeks after treatment
Outline: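 Visual injury scored 0-9 against control three to four weeks post-treatment, greenhouse-grown. Application: acetone/water (50/50) solutions dosed directly into flood water (1.5-3 cm over silt loam, planted top 0.5 cm), roughly 0.0313 to 0.500 kg/ha active ingredient.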

CYPSE (Flatsedge) = test: as above; type: in vivo, Cyperus serotinus; settings: rated 3-4 weeks after treatment
Outline: (§3)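 Silt loam, seeds in top 0.5 cm; flood held 1.5-3 cm; test cpd as acetone/water 50/50 into flood water, ~0.0313-0.500 kg/ha a.i.; greenhouse 3-4 wk; visual 0-9 score vs control.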

[6] = test system: SAGPY (Arrowhead (Pygmaea)); test: as above; type: in vivo, Sagittaria pygmaea; settings: rated 3-4 weeks after treatment
Outline: as §3

[7] = test system: ECHORC (Watergrass (Calif.)); test: Postemergence weed control under flooded paddy conditions; type: in vivo, Echinochloa oryzoides; settings: postemergence weeds, rated 3 to 4 weeks after treatment
Outline: (§4)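 Injury ratings (0–9 scale covering stand, vigor, malformation, size, chlorosis and overall appearance versus control) were made three to four weeks after treatment. Test material, about 0.0313 to 0.500 kg/ha a.i. in 50/50 v/v aqueous/acetone, was added to flood water 1.5 to 3 cm deep over 3 to 5 cm weeds and 1.5 to 2.5 leaf rice.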

[8] = test system: SAGPY (Arrowhead (Pygmaea)); test: as above; type: in vivo, Sagittaria pygmaea; settings: postemergence weeds, rated 3 to 4 weeks after treatment
Outline: as §4

COC(=O)[C@H](Cc1ccccc1)N1C(=O)CS/C1=N/c1cc(-n2c(=O)cc(C(F)(F)F)n(C)c2=O)c(F)cc1Cl [Compound 72, Methyl α-benzyl-2-{{2-chloro-5-[3,6-dihydro-3-methyl-2,6-dioxo-4-(trifluoromethyl)-1(2H)-pyrimidinyl]-4-fluorophenyl]imino}-4-oxo-3-thiazolidineacetate, L-]
AMBEL herbicidal rating (AMBEL (Ragweed, Common); rate 0.0158 kg/ha): 5.0
AMBEL herbicidal rating (AMBEL (Ragweed, Common); rate 0.0315 kg/ha): 9.0
AMBEL herbicidal rating (AMBEL (Ragweed, Common); rate 0.0630 kg/ha): 6.0
CASOB herbicidal rating (CASOB (Sicklepod); rate 0.0158 kg/ha): 8.0
CASOB herbicidal rating (CASOB (Sicklepod); rate 0.0315 kg/ha): 6.0
CASOB herbicidal rating (CASOB (Sicklepod); rate 0.0630 kg/ha): 7.0
GALAP herbicidal rating (GALAP (Galium) [1]; rate 0.0158 kg/ha): 6.0
GALAP herbicidal rating (GALAP (Galium) [1]; rate 0.0315 kg/ha): 7.0
GALAP herbicidal rating (GALAP (Galium) [1]; rate 0.0630 kg/ha): 9.0
GLXMAW herbicidal rating ([2]; rate 0.0158 kg/ha): 5.5
GLXMAW herbicidal rating ([2]; rate 0.0315 kg/ha): 5.5
GLXMAW herbicidal rating ([2]; rate 0.0630 kg/ha): 7.0
TRZAWR herbicidal rating ([3]; rate 0.0158 kg/ha): 3.5
TRZAWR herbicidal rating ([3]; rate 0.0315 kg/ha): 4.0
TRZAWR herbicidal rating ([3]; rate 0.0630 kg/ha): 4.5
Preemergence herbicidal rating GALAP (GALAP (Galium) [4]; rate 0.0156 kg/ha): 0.0
Preemergence herbicidal rating GALAP (GALAP (Galium) [4]; rate 0.0313 kg/ha): 0.0
Preemergence herbicidal rating GALAP (GALAP (Galium) [4]; rate 0.0625 kg/ha): 0.0
Preemergence herbicidal rating GALAP (GALAP (Galium) [4]; rate 0.1250 kg/ha): 0.0
Preemergence herbicidal rating GALAP (GALAP (Galium) [4]; rate 0.2500 kg/ha): 9.0
Preemergence herbicidal rating SETVI (SETVI (Foxtail, Green); rate 0.0156 kg/ha): 0.0
Preemergence herbicidal rating SETVI (SETVI (Foxtail, Green); rate 0.0313 kg/ha): 0.0
Preemergence herbicidal rating SETVI (SETVI (Foxtail, Green); rate 0.0625 kg/ha): 0.0
Preemergence herbicidal rating SETVI (SETVI (Foxtail, Green); rate 0.1250 kg/ha): 9.0
Preemergence herbicidal rating SETVI (SETVI (Foxtail, Green); rate 0.2500 kg/ha): 9.0
Preemergence herbicidal rating ORYSAT (ORYSAT (Rice, Tebonnet); rate 0.0156 kg/ha): 0.0
Preemergence herbicidal rating ORYSAT (ORYSAT (Rice, Tebonnet); rate 0.0313 kg/ha): 0.0
Preemergence herbicidal rating ORYSAT (ORYSAT (Rice, Tebonnet); rate 0.0625 kg/ha): 0.0
Preemergence herbicidal rating ORYSAT (ORYSAT (Rice, Tebonnet); rate 0.1250 kg/ha): 1.0
Preemergence herbicidal rating ORYSAT (ORYSAT (Rice, Tebonnet); rate 0.2500 kg/ha): 1.0
ECHORC herbicidal effect rating ([5]; 0.0313 kg/ha): 9.0
ECHORC herbicidal effect rating ([5]; 0.0625 kg/ha): 9.0
ECHORC herbicidal effect rating ([5]; 0.1250 kg/ha): 9.0
ECHORC herbicidal effect rating ([5]; 0.2500 kg/ha): 9.0
CYPSE herbicidal effect rating (CYPSE (Flatsedge); 0.0313 kg/ha): 0.0
CYPSE herbicidal effect rating (CYPSE (Flatsedge); 0.0625 kg/ha): 0.0
CYPSE herbicidal effect rating (CYPSE (Flatsedge); 0.1250 kg/ha): 9.0
CYPSE herbicidal effect rating (CYPSE (Flatsedge); 0.2500 kg/ha): 9.0
SAGPY herbicidal effect rating ([6]; 0.0313 kg/ha): 4.0
SAGPY herbicidal effect rating ([6]; 0.0625 kg/ha): 4.0
SAGPY herbicidal effect rating ([6]; 0.1250 kg/ha): 4.0
SAGPY herbicidal effect rating ([6]; 0.2500 kg/ha): 4.0
Herbicidal rating ECHORC ([7]; Rate 0.0313 kg/ha): 9.0
Herbicidal rating ECHORC ([7]; Rate 0.0625 kg/ha): 9.0
Herbicidal rating ECHORC ([7]; Rate 0.1250 kg/ha): 9.0
Herbicidal rating ECHORC ([7]; Rate 0.2500 kg/ha): 9.0
Herbicidal rating SAGPY ([8]; Rate 0.0313 kg/ha): 4.0
Herbicidal rating SAGPY ([8]; Rate 0.0625 kg/ha): 4.0
Herbicidal rating SAGPY ([8]; Rate 0.1250 kg/ha): 4.0
Herbicidal rating SAGPY ([8]; Rate 0.2500 kg/ha): 4.0

— patent US20020137929A1, “1 - (3-heterocyclylphenyl) isothiourea, -isourea, -guanidine and -amidine herbicidal agents” (Intellectual Property Department, BASF Aktiengesellschaft, priority 1998, published 2002)
